Assay: wn = mass fraction of the nth substance listed
Settings: 101.33 kPa, Liquid; for viscosity: Concentric cylinders viscometry; for mass density: Vibrating tube method

CC(O)CO (configuration not stated) [1,2-propanediol] + O
Settings | mass density [kg/m3] | viscosity [mPa·s]
253.15 K, w1 = 0.5005 | 1062.5 | 84.94
253.15 K, w1 = 0.672 | 1070.8 | 204.36
253.15 K, w1 = 0.8044 | 1071.6 | 415.71
253.15 K, w1 = 0.9481 | 1068.2 | 1067
253.15 K, w1 = 1 | 1065.8 | 1772.4
258.15 K, w1 = 0.3312 | 1041.7 | 21.95
258.15 K, w1 = 0.5005 | 1059.8 | 55.34
258.15 K, w1 = 0.672 | 1067.6 | 128.54
258.15 K, w1 = 0.8044 | 1068.1 | 256.2
258.15 K, w1 = 0.9481 | 1064.7 | 638.89
258.15 K, w1 = 1 | 1062.2 | 1038.3
263.15 K, w1 = 0.3312 | 1040 | 15.59
263.15 K, w1 = 0.5005 | 1056.9 | 37.52
263.15 K, w1 = 0.672 | 1064.3 | 84.22
263.15 K, w1 = 0.8044 | 1064.5 | 164.62
263.15 K, w1 = 0.9481 | 1061 | 396.61
263.15 K, w1 = 1 | 1058.6 | 631.08
268.15 K, w1 = 0.198 | 1021.7 | 5.78
268.15 K, w1 = 0.3312 | 1038.15 | 11.45
268.15 K, w1 = 0.5005 | 1054 | 26.37
268.15 K, w1 = 0.672 | 1060.9 | 57.22
268.15 K, w1 = 0.8044 | 1061.1 | 109.37
268.15 K, w1 = 0.9481 | 1057.4 | 254.76
268.15 K, w1 = 1 | 1054.9 | 396.99
273.15 K, w1 = 0.0988 | 1009.8 | 2.877
273.15 K, w1 = 0.198 | 1020.8 | 4.552
273.15 K, w1 = 0.3312 | 1036.3 | 8.655
273.15 K, w1 = 0.5005 | 1051.1 | 19.12
273.15 K, w1 = 0.672 | 1057.5 | 40.16
273.15 K, w1 = 0.8044 | 1057.6 | 75.05
273.15 K, w1 = 0.9481 | 1053.8 | 169.13
273.15 K, w1 = 1 | 1051.3 | 258
283.15 K, w1 = 0.0988 | 1008.2 | 1.991
283.15 K, w1 = 0.198 | 1017.8 | 3.017
283.15 K, w1 = 0.3312 | 1031.2 | 5.306
283.15 K, w1 = 0.5005 | 1044.6 | 10.83
283.15 K, w1 = 0.672 | 1050.5 | 21.24
283.15 K, w1 = 0.8044 | 1050.4 | 38.42
283.15 K, w1 = 0.9481 | 1045.6 | 86.69
283.15 K, w1 = 1 | 1042.9 | 116.68
293.15 K, w1 = 0.0988 | 1005.7 | 1.454
293.15 K, w1 = 0.198 | 1014.5 | 2.171
293.15 K, w1 = 0.3312 | 1026.3 | 3.536
293.15 K, w1 = 0.5005 | 1038.1 | 6.741
293.15 K, w1 = 0.672 | 1043.2 | 12.58
293.15 K, w1 = 0.8044 | 1042.9 | 21.75
293.15 K, w1 = 0.9481 | 1038.2 | 45.66
293.15 K, w1 = 1 | 1035.5 | 59.75
303.15 K, w1 = 0.0988 | 1002.6 | 1.148
303.15 K, w1 = 0.198 | 1010.6 | 1.599
303.15 K, w1 = 0.3312 | 1021 | 2.503
303.15 K, w1 = 0.5005 | 1031.4 | 4.51
303.15 K, w1 = 0.672 | 1035.9 | 8.01
303.15 K, w1 = 0.8044 | 1035.4 | 13.28
303.15 K, w1 = 0.9481 | 1030.8 | 26.09
303.15 K, w1 = 1 | 1028.1 | 33.26
313.15 K, w1 = 0.0988 | 999 | 0.9194
313.15 K, w1 = 0.198 | 1006 | 1.241
313.15 K, w1 = 0.3312 | 1015.3 | 1.858
313.15 K, w1 = 0.5005 | 1024.5 | 3.166
313.15 K, w1 = 0.672 | 1028.4 | 5.398
313.15 K, w1 = 0.8044 | 1027.8 | 8.638
313.15 K, w1 = 0.9481 | 1023.2 | 16
313.15 K, w1 = 1 | 1020.6 | 19.92
323.15 K, w1 = 0.0988 | 994.4 | 0.7541
323.15 K, w1 = 0.198 | 1000.8 | 0.9933
323.15 K, w1 = 0.3312 | 1009.2 | 1.436
323.15 K, w1 = 0.5005 | 1017.4 | 2.345
323.15 K, w1 = 0.672 | 1020.8 | 3.852
323.15 K, w1 = 0.8044 | 1020.1 | 5.938
323.15 K, w1 = 0.9481 | 1015.6 | 10.4
323.15 K, w1 = 1 | 1013 | 12.68
333.15 K, w1 = 0.0988 | 989.3 | 0.6304
333.15 K, w1 = 0.198 | 995.4 | 0.8167
333.15 K, w1 = 0.3312 | 1002.7 | 1.145
333.15 K, w1 = 0.5005 | 1010 | 1.802
333.15 K, w1 = 0.672 | 1013 | 2.852
333.15 K, w1 = 0.8044 | 1012.2 | 4.247
333.15 K, w1 = 0.9481 | 1007.8 | 7.094
333.15 K, w1 = 1 | 1005.3 | 8.498
343.15 K, w1 = 0.0988 | 983.5 | 0.5375
343.15 K, w1 = 0.198 | 989.2 | 0.6869
343.15 K, w1 = 0.3312 | 996 | 0.9408
343.15 K, w1 = 0.5005 | 1002.3 | 1.425
343.15 K, w1 = 0.672 | 1004.9 | 2.188
343.15 K, w1 = 0.8044 | 1004.1 | 3.161
343.15 K, w1 = 0.9481 | 999.8 | 5.053
343.15 K, w1 = 1 | 997.7 | 5.95
353.15 K, w1 = 0.0988 | 977.2 | 0.4666
353.15 K, w1 = 0.198 | 982.5 | 0.5856
353.15 K, w1 = 0.3312 | 988.9 | 0.7888
353.15 K, w1 = 0.5005 | 994.6 | 1.162
353.15 K, w1 = 0.672 | 996.9 | 1.733
353.15 K, w1 = 0.8044 | 996 | 2.433
353.15 K, w1 = 0.9481 | 991.9 | 3.734
353.15 K, w1 = 1 | 989.5 | 4.332

— the NIST ThermoML archive (doi:10.1021/acs.jced.8b00403)
